Source: US20190202877A1, “DERMASEPTIN-TYPE AND PISCIDIN-TYPE ANTIMICROBIAL PEPTIDES” (THE REGENTS OF THE UNIVERSITY OF COLORADO, a body corporate, priority 2014, published 2019)
Values after ≈ are worked out from the molar mass of the structure shown. Read-outs that look alike come from different tables or passages of the source.

Experiments:
[1] = test system: human red blood cells
Method: Peptide samples (concentrations determined by amino acid analysis) were added to 1% human erythrocytes in phosphate-buffered saline (100 mM NaCl, 80 mM Na2HPO4, 20 mM NaH2PO4, pH 7.4) and the reaction mixtures were incubated at 37° C. for 18 h in microtiter plates. Two-fold serial dilutions of the peptide samples were carried out. This determination was made by withdrawing aliquots from the hemolysis assays and removing unlysed erythrocytes by centrifugation (800×g). Hemoglobin release was determined spectrophotometrically at 570 nm. The control for 100% hemolysis was a sample of erythrocytes treated with water or 0.1% Triton-X 100. The control for no release of hemoglobin was a sample of 1% erythrocytes without any peptide added. […] The hemolytic activity was determined as the peptide concentration that caused 50% hemolysis of erythrocytes after 18 h (HC50). HC50 as determined from a plot of percent lysis versus peptide concentration (μM). The inventors also determined the hemolytic activity after 1 hour at 37° C.

[2] = test system: methicillin sensitive Staph. aureus (MSSA); assay type: cell-based, Staphylococcus aureus; conditions: for MIC: MH medium, 37° C., 24 h
Method: (§1) MICs were determined by a standard microtiter dilution method in Mueller Hinton (MH) medium. Briefly, cells were grown overnight at 37° C. in MH broth and were diluted in the same medium. Serial dilutions of the peptides were added to the microtiter plates in a volume of 50 μl, followed by the addition of 50 μl of bacteria to give a final inoculum of 5×10^5 colony-forming units (CFU)/mL. The plates were incubated at 37° C. for 24 h, and the MICs were determined as the lowest peptide concentration that inhibited growth.
(§2) Various peptides of the invention were tested for antimicrobial activity as described in Example 1. The antimicrobial activity of these peptides was similarly tested against Gram-positive organisms, including Staphylococcus aureus.

[3] = test system: methicillin resistant Staph. aureus (MRSA); assay type: cell-based, Staphylococcus aureus; conditions: for MIC: MH medium, 37° C., 24 h
Method: as §1, §2

Structure (SMILES): CC[C@@H](C)[C@@H](NC(=O)[C@@H](Cc1c[nH]cn1)NC(=O)[C@@H](Cc1c[nH]cn1)NC(=O)[C@@H](Cc1ccccc1)NC(=O)[C@H](N)Cc1ccccc1)C(=O)N[C@H](Cc1ccccc1)C(=O)N[C@H](CCCNC(=N)N)C(=O)NCC(=O)N[C@H](CCCCN)C(=O)N[C@@H](C(=O)N[C@H](Cc1c[nH]cn1)C(=O)N[C@@H](C(=O)NCC(=O)N[C@H](CCCCN)C(=O)N[C@@H](C(=O)N[C@@H](C(=O)N[C@H](Cc1c[nH]cn1)C(=O)N[C@H](CCCNC(=N)N)C(=O)N[C@H](CC(C)C)C(=O)N[C@@H](C(=O)N[C@@H](C(=O)NCC(N)=O)[C@H](C)O)C(C)C)[C@H](C)CC)[C@H](C)O)C(C)C)C(C)C [D-Piscidin 1 I9K]
- % hemolysis ([1]; 1000 μg/mL (387 μM) for 1 hour): 32%
- activity against human red blood cells ([1]; 18 hours incubation): inactive
- Fold improvement in HC50 ([1]; compared to D-Piscidin 1 or D-Dermaseptin S4, 18 hours): 54 fold
- MIC ([2]; MSSA strain BL7429): 193 µM (≈ 499 µg/mL)
- MIC ([2]; MSSA strain M21913): 193 µM (≈ 499 µg/mL)
- MIC ([2]; MSSA strain M21935): 387 µM (≈ 1000 µg/mL)
- MIC ([2]; MSSA strain M21991): 193 µM (≈ 499 µg/mL)
- MIC ([2]; MSSA strain M22075): 387 µM (≈ 1000 µg/mL)
- MIC ([2]; MSSA strain M22097): 193 µM (≈ 499 µg/mL)
- MIC ([2]; MSSA strain M22111): 3.0 µM (≈ 7.76 µg/mL)
- MIC ([2]; MSSA strain M22274): 773 µM (≈ 2000 µg/mL)
- MIC ([2]; MSSA strain M22287): 773 µM (≈ 2000 µg/mL)
- MIC ([2]; MSSA strain M22300): 773 µM (≈ 2000 µg/mL)
- MIC ([2]; MSSA strain M22312): 773 µM (≈ 2000 µg/mL)
- MIC ([2]; MSSA strain M22315): 773 µM (≈ 2000 µg/mL)
- MIC GM, MSSA ([2]; geometric mean of MIC from 12 different isolates of MSSA): 273 µM (≈ 706 µg/mL)
- MIC ([3]; MRSA strain M21742 (nose)): 96.7 µM (≈ 250 µg/mL)
- MIC ([3]; MRSA strain M21756 (nose)): 387 µM (≈ 1000 µg/mL)
- MIC ([3]; MRSA strain M22111 (ear)): 96.7 µM (≈ 250 µg/mL)
- MIC ([3]; MRSA strain M22130): 12.1 µM (≈ 31.3 µg/mL)
- MIC ([3]; MRSA strain M22224 (leg)): 96.7 µM (≈ 250 µg/mL)
- MIC ([3]; MRSA strain M22354): 773 µM (≈ 2000 µg/mL)
- MIC ([3]; MRSA strain M22360 (labia)): 3.0 µM (≈ 7.76 µg/mL)
- MIC ([3]; MRSA strain M22424 (arm)): 773 µM (≈ 2000 µg/mL)
- MIC GM, MRSA ([3]; geometric mean of MIC from 8 different isolates of MRSA): 96.7 µM (≈ 250 µg/mL)
